Experimental data published in article PMC6838683, “Discovery of Human Signaling Systems: Pairing Peptides to G Protein-Coupled Receptors” (Cell, 2019).
Values belong to the molecule of their own block, whether it stands above or below them. Residues, ends and D or L forms follow the SMILES beside them.

What was measured:
[1] = tested on: 120 GPCR targets, including all available orphan receptors and 27 known class A peptide receptors; experiment: Peptide library screen, β-arrestin recruitment (Tango, fold change, 10 μM); type: cell-based, human; settings: repeat hitters of the peptide library screen; the value names the known receptor(s) confirmed in the β-arrestin recruitment (Tango) screen
Summary of the method: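 HTLA cells (HEK293 with tTA-dependent luciferase and β-arrestin2-TEV) transiently transfected with Tango GPCR constructs, then stimulated overnight with 10 μM peptides in 1% dFBS medium. Luciferase luminescence read after 15–20 min Bright-Glo incubation at room temperature.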

BB3 [2] = biological target: T1, BB3 (Homo sapiens, UniProt P32247); experiment: IP1 accumulation (Gq/11), HTRF; type: cell-based; settings: BB3, mean, SEM and n
T1 construct: hIL-2Ra signal peptide (N); expressed in transfected cells
T1 sequence (P32247 2-399 limits assumed): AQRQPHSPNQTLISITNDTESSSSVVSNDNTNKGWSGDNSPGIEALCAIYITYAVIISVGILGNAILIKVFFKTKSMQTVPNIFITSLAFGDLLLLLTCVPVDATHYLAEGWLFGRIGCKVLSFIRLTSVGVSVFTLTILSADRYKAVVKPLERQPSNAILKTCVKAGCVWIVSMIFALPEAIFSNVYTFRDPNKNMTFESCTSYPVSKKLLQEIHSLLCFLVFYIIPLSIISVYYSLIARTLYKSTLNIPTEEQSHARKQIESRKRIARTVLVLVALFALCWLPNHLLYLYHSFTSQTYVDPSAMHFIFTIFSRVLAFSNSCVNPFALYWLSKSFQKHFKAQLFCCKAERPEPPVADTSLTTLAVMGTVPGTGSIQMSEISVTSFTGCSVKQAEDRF

OPRK1 = biological target: T2, OPRK1 (Homo sapiens, UniProt P41145); experiment: β-arrestin recruitment (Tango), known peptide receptors; type: cell-based; settings: mean
T2 construct: host or cells: HTLA cells (HEK293-derived)
T2 sequence (P41145 whole entry): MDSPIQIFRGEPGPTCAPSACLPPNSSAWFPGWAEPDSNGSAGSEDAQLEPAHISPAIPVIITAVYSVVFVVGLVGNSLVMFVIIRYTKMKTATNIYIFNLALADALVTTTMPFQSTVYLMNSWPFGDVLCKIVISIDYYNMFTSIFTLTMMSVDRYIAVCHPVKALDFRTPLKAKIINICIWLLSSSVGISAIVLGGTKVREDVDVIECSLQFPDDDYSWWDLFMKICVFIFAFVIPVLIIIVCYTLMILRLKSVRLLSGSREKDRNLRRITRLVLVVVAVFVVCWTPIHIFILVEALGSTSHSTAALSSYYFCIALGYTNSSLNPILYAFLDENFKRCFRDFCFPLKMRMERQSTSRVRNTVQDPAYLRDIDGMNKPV

BB3 [3] = biological target: T1, BB3; experiment: Dynamic mass redistribution (DMR), concentration-response; type: cell-based
BB3 [4] = biological target: T3, BB3 (Homo sapiens, UniProt P32247); experiment: β-arrestin recruitment (Tango), validation; type: cell-based
T3 construct: host or cells: HTLA cells (HEK293-derived)
T3 sequence (P32247 1-399): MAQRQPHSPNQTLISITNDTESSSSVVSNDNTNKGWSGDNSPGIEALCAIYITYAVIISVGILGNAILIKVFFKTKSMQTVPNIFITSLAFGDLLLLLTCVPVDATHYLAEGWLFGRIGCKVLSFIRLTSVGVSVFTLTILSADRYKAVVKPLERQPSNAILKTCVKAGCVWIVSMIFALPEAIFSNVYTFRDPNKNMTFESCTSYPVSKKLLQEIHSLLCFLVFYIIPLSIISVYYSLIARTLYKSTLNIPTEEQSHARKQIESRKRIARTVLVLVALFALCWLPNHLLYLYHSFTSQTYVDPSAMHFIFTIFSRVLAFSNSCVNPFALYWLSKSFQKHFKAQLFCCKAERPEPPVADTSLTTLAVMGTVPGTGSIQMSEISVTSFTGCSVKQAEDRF
Procedure: The peptide library was additionally screened against 120 GPCR targets in parallel, including all available orphan receptors and 27 known class A peptide receptors using the Tango assay platform ([Kroeze et al., 2015]). Briefly, HTLA cells (a HEK293 cell line stably expressing a tTA-dependent luciferase reporter and a β-arrestin2-TEV fusion gene) were plated 10,000 cells/well in poly-L-lysine–coated clear-bottom white 384-well plates in DMEM supplemented with 10% FBS, 100 U/ml penicillin and 100 μg/ml streptomycin, 2 μg/ml puromycin and 100 μg/ml hygromycin B. 24 hr later, cells were transfected with Tango GPCR constructs using the calcium phosphate method ([Jordan et al., 1996]). The next day, culture medium was changed to DMEM + 1% dFBS and 10 μM peptides were added for overnight stimulation. Bright-Glo solution (Promega) was incubated for 15–20 min at room temperature, and luminescence was counted using a Trilux luminescence counter (Wallac).
For subsequent peptide validation experiments using Tango assays, HTLA cells were transiently transfected in 10 cm dishes with the receptor of interest using polyethylenimine (PEI) ([Longo et al., 2013]). After 24 hr, 25,000 cells/well were plated in clear bottom, white-walled 384-well plates. Assays were performed as described above, with luminescence measured using an EnSpire 2300 Multimode plate reader (PerkinElmer). Luminescence counts were exported into Excel and were analyzed using GraphPad Prism 7.

BB3 [5] = biological target: T1, BB3; experiment: Real-time receptor internalization (TR-FRET), concentration-response; type: cell-based
NPY5 = biological target: T4, NPY5 (Homo sapiens, UniProt Q15761); experiment: β-arrestin recruitment (Tango), known peptide receptors; type: cell-based; settings: NPY5R; Emax and pEC50 n.d.; n = 3
T4 construct: host or cells: HTLA cells (HEK293-derived)
T4 sequence (Q15761 1-445): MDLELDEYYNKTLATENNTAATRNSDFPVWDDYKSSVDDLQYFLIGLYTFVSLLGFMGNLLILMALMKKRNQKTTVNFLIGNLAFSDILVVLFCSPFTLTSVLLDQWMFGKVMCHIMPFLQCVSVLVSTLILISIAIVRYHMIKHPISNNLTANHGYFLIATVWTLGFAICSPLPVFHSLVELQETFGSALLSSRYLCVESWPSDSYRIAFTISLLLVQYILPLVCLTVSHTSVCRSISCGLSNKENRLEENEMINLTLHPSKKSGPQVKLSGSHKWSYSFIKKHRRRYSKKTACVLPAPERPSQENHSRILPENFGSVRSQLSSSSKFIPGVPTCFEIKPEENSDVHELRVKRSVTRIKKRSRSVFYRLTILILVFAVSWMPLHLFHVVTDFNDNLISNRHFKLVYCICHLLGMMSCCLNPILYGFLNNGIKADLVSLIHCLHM

GPR183 = biological target: T5, GPR183 (Homo sapiens, UniProt P32249); experiment: β-arrestin recruitment (Tango), indicative pairing; type: cell-based; settings: mean, n = 3
T5 construct: host or cells: HTLA cells (HEK293-derived)
T5 sequence (P32249 whole entry): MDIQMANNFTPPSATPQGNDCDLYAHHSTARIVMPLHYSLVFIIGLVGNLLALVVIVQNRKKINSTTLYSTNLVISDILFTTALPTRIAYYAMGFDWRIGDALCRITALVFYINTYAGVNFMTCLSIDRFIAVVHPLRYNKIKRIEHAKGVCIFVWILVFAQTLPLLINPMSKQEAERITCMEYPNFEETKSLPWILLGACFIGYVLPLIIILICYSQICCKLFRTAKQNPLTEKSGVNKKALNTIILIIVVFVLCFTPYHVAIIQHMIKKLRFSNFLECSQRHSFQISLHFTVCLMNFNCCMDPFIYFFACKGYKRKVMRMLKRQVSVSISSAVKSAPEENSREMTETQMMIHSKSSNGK

MLNR = biological target: T6, MLNR (Homo sapiens, UniProt O43193); experiment: β-arrestin recruitment (Tango), known peptide receptors; type: cell-based; settings: endogenous ligand(s) included in peptide library
T6 construct: host or cells: HTLA cells (HEK293-derived)
T6 sequence (O43193 whole entry): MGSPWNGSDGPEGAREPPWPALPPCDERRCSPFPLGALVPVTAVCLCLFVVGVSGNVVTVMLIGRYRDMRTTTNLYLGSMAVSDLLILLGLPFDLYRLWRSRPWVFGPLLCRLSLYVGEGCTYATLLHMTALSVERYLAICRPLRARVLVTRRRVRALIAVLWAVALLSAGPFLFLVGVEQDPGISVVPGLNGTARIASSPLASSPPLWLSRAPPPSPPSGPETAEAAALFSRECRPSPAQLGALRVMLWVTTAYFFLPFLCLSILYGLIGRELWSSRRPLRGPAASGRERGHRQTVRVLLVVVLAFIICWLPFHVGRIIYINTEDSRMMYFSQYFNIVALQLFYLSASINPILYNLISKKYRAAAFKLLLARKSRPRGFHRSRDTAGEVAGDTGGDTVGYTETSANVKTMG
From the text: (§1) Supplement mmc6.xlsx, sheet "Peptide GPCR controls" | column: Confirmed?

GPR161 = biological target: T7, GPR161 (Homo sapiens, UniProt Q8N6U8); experiment: β-arrestin recruitment (Tango), indicative pairing; type: cell-based; settings: mean, n = 3
T7 construct: host or cells: HTLA cells (HEK293-derived)
T7 sequence (Q8N6U8 whole entry): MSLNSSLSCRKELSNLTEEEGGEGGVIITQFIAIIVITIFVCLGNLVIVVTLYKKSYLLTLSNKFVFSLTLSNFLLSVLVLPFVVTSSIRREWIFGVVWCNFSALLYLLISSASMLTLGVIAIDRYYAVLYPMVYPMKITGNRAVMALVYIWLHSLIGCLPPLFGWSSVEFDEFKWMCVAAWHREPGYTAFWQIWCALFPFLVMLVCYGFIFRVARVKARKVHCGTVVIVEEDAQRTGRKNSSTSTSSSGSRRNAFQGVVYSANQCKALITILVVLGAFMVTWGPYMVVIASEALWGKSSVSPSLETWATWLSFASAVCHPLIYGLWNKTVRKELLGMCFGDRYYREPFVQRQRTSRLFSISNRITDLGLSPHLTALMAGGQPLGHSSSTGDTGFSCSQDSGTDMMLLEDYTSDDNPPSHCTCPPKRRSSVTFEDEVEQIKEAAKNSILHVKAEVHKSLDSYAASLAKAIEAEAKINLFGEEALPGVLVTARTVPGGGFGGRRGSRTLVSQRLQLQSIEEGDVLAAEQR

NPS = experiment: β-arrestin recruitment (Tango), known peptide receptors; type: cell-based, human; settings: NPS receptor, endogenous ligand(s) included in peptide library
From the text: as §1

NTSR1 = experiment: as above; type: cell-based, human; settings: Neurotensin not cyclized
From the text: Supplement mmc6.xlsx, sheet "Peptide GPCR controls" | column: Confirmed?; Notes

NTSR2 = experiment: as above; type: cell-based, human; settings: Neurotensin not cyclized
From the text: as §1

OPRL1 = experiment: as above; type: cell-based, human; settings: endogenous ligand(s) included in peptide library
From the text: as §1

HCTR2 = experiment: as above; type: cell-based, human; settings: endogenous ligand(s) included in peptide library
From the text: as §1

GPR55 = GPR55 (Homo sapiens, UniProt Q9Y2T6)
Sequence of GPR55 (Q9Y2T6 whole entry): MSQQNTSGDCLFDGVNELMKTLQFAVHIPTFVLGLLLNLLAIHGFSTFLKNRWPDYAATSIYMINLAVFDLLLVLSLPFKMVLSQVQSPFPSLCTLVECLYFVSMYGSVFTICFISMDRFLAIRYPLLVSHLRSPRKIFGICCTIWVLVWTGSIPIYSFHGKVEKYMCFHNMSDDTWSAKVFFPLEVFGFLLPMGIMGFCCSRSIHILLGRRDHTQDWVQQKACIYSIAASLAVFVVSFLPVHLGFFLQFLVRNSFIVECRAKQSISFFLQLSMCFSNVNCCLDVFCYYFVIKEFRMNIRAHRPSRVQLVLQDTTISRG

[6] = biological target: GPR1 (Tango construct) (human) (UniProt P46091)
Sequence of GPR1 (Tango construct) (human) (P46091 whole entry): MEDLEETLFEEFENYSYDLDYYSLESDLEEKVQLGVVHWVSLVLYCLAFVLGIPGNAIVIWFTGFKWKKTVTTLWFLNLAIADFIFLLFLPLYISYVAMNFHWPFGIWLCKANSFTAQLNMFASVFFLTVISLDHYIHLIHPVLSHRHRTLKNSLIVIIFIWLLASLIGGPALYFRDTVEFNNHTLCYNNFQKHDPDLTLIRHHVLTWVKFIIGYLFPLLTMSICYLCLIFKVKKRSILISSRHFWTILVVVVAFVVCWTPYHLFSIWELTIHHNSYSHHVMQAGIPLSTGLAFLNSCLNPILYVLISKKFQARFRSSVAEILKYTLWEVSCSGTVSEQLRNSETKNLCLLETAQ

GPR1 (PathHunter cells) = GPR1 (PathHunter cells) (UniProt P46091)
Sequence of GPR1 (PathHunter cells) (P46091 whole entry): as above

GPR17 = biological target: T8, GPR17 (Homo sapiens, UniProt Q13304); experiment: β-arrestin recruitment (Tango), indicative pairing; type: cell-based; settings: mean, n = 3
T8 construct: host or cells: HTLA cells (HEK293-derived)
T8 sequence (Q13304 whole entry): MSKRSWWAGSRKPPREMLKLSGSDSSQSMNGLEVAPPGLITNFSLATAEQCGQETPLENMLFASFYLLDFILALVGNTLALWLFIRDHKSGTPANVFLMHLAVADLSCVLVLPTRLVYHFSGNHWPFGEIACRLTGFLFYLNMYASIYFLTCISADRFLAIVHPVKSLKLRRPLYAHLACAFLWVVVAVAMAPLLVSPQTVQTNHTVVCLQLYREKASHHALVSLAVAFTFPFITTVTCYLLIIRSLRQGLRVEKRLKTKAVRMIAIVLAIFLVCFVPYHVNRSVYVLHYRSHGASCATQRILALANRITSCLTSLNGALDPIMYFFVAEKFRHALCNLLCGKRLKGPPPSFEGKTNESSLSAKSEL

NOP (OPRL1) = biological target: T9, NOP (OPRL1) (Homo sapiens, UniProt P41146); experiment: β-arrestin recruitment (Tango), known peptide receptors; type: cell-based; settings: mean, n = 3
T9 construct: host or cells: HTLA cells (HEK293-derived)
T9 sequence (P41146 whole entry): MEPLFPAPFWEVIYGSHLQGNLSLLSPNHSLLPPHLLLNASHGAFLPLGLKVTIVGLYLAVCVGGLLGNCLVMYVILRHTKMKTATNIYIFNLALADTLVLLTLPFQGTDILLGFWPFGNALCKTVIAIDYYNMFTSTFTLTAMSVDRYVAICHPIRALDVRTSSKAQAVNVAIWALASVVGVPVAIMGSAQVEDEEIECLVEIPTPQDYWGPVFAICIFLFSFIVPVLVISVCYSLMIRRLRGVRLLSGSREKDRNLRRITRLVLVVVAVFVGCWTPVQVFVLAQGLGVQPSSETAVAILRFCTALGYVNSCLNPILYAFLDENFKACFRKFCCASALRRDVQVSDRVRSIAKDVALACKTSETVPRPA
From the text: Supplement mmc7.xlsx, sheet "Peptide validation data" | column: Emax; pEC50

Molecule: CSCC[C@H](NC(=O)[C@H](Cc1ccccc1)NC(=O)CNC(=O)CNC(=O)[C@@H](N)Cc1ccc(O)cc1)C(=O)N[C@@H](CCCNC(=N)N)C(=O)N[C@@H](CCCNC(=N)N)C(=O)N[C@H](C(=O)NCC(=O)N[C@@H](CCCNC(=N)N)C(=O)N1CCC[C@H]1C(=O)N[C@@H](CCC(=O)O)C(=O)N[C@@H](Cc1c[nH]c2ccccc12)C(=O)N[C@@H](Cc1c[nH]c2ccccc12)C(=O)N[C@@H](CCSC)C(=O)N[C@@H](CC(=O)O)C(=O)N[C@@H](Cc1ccc(O)cc1)C(=O)N[C@@H](CCC(N)=O)C(=O)N[C@@H](CCCCN)C(=O)N[C@@H](CCCNC(=N)N)C(=O)N[C@@H](Cc1ccc(O)cc1)C(=O)NCC(=O)NCC(=O)N[C@@H](Cc1ccccc1)C(=O)N[C@@H](CC(C)C)C(=O)O)C(C)C [Peptide 158, Peptide E] (H-YGGFMRRVGRPEWWMDYQKRYGGFL-OH)
Confirmation of known target in Tango [1]: kappa, mu | Emax, IP1 (BB3 [2]): 164.0 nM | EC50 (BB3 [2]; pEC50, IP1 (nM)): 6760 nM | Emax, Tango (fold over basal) (OPRK1; n = 3): 5.0 fold over basal | EC50 (OPRK1; n = 3, read-out: pEC50, Tango (fold over basal) (converted)): 1350 nM | EC50 (BB3 [3]): > 10 µM | EC50 (BB3 [3]; pEC50, DMR (peak), BB3, mean, SEM and n): 72.4 µM | EC50 (BB3 [4]; BB3, mean, SEM and n, read-out: pEC50, Tango (fold over basal) (converted)): 93.3 µM | EC50 (BB3 [4]; HTLA cells transiently transfected, overnight stimulation, luciferase, mean ± SEM of 3-4 independent experiments in triplicate, read-out: pEC50, β-arrestin recruitment (Tango), BB3 (converted)): > 10 µM | Emax, Internalization (AUC) (BB3 [5]): 16.0

Molecule: Motilin
Confirmed? (confirmation of b-arrestin recruitment) (MLNR): Yes

Molecule: Neurotensin
Confirmed? (confirmation of b-arrestin recruitment) (NTSR1; Tango): Yes | Notes (b-arrestin recruitment response) (NTSR1; validation): Neurotensin not cyclized; weak activation in validation | Confirmed? (confirmation of b-arrestin recruitment) (NTSR2): No

Molecule: Nociceptin/orphanin FQ
Confirmed? (confirmation of b-arrestin recruitment) (OPRL1): Yes

Molecule: Orexin-B
Confirmed? (confirmation of b-arrestin recruitment) (HCTR2): Yes

Molecule: PACAP27 (peptide)
pEC50 at GPR55 (internalization or mass redistribution; assay not given) (GPR55): 9.51 pEC50

Molecule: Peptide 141 (Osteocrin_(-2-19))
pEC50 in Tango β-arrestin recruitment assay [6]: 5.6 pEC50 | pEC50 in PathHunter β-arrestin recruitment assay (GPR1 (PathHunter cells)): 6.18 pEC50

Molecule: TLGPQAHSLALQSVDLLFRP [Peptide 132]
Emax, Tango (fold over basal) (NOP (OPRL1)): 8.8 fold over basal | pEC50, Tango (fold over basal) (NOP (OPRL1)): 4.82

Now from value to molecule:

Comment, Tango (fold over basal) (NPY5): Response >1uM; part of QRFP43 | Emax, Tango (fold over basal) (GPR183): 1.7 fold over basal | pEC50, Tango (fold over basal) (GPR183): 8.61
Molecule: KGGFSFRF [Peptide 31]

Emax, Tango (fold over basal) (GPR161): 1.4 fold over basal | pEC50, Tango (fold over basal) (GPR161): 6.57
Molecule: NWTPQAMLYLKGAQ [Peptide 95]

Confirmed? (confirmation of b-arrestin recruitment) (NPS): No
Molecule: Neuropeptide S (SFRNGVGTGMKKTSFQRAKS)

Emax, Tango (fold over basal) (GPR17): 1.3 fold over basal | pEC50, Tango (fold over basal) (GPR17): 9.08
Molecule: RHVNHSATEALGELRERAPGQGTNGFQLLRHAV [Peptide 192]
